Tests used:
Format in all cases: cell-based, mouse
C2C12 myoblasts = assay: C2C12 myoblast differentiation in low serum media with caspase inhibitors (MF20 staining, immunoblot of myogenic markers); conditions: 20 μM inhibitor; for myotube formation: C2C12, low serum media, MF20 staining, up to 4 days; for myotube formation / myoblast fusion (mononucleated / fused cells): vs DMSO; for myoblast fusion (mononucleated / fused cells) / expression of MEF2C / accumulation of myogenin: C2C12, low serum; for myoblast fusion (mononucleated / fused cells): 4 days; for expression of MEF2C / accumulation of myogenin: Western blot; for expression of MEF2C: vs control; for accumulation of myogenin: vs control myoblasts
Method: Myoblast culture. C2C12 cell (mouse skeletal muscle myoblast) cultures were grown and maintained in DMEM containing 10% FBS with 50 units/ml penicillin and 50 μg/ml streptomycin (Gibco). Differentiation was induced by incubating cultures in DMEM containing only a low serum concentration (2% horse serum). Caspase activity was measured using a Caspase-3 and Caspase-8 Fluorometric Assay Kit (Pharmingen). […] Control cells were treated with an equivalent amount of vehicle (DMSO). Primary myoblast cells were derived from skeletal muscles of the hind- and fore-limbs from 1-2 day old C57BL/6 wild-type, caspase-3 heterozygous and caspase-3 null mice (Frasch, S. C., et al., (1998) J. Biol. Chem. 273, 8389-8397; Kuida, K., et al., (1996) Nature 384, 368-372) (n=5 for each genotype) as described (Cregan, S. P. et al., (1999) J. Neuro. 19, 7860-7869.). To induce differentiation, primary myoblast cultures were incubated in DMEM containing 5% horse serum.
Protein isolation, immunoblot analyses and immunocytochemistry. Cells from C2C12 and primary myoblast cultures were washed with ice-cold PBS and lysed on ice for 45 minutes in modified-RIPA buffer containing 20 mM NaF, 5 mM Na3VO4 and 10 μg/ml each of aprotinin, leupeptin, pepstatin and PMSF. Total protein was measured using the BCA protein assay (Pierce). Immunoblot analyses were performed as described (Creasy, C. L., & Chernoff, J. (1995) J. Biol. Chem. 270, 21695-21700) using antibodies for MST1, MKK6, p38γ, and p38α (Upstate), p38 and MEF2C (Cell Signaling Technologies), myogenin F5D and myosin heavy chain MF20 mAb (Developmental Hybridoma Bank), and active caspase-3 (Biovision).
C2C12 myoblasts were fixed and stained with anti-MF20 as previously described (Cregan, et al., (1999) J. Neuro. 19, 7860-7869). Primary myoblast cultures were fixed in 4% paraformaldehyde, rinsed three times in PBS containing 0.01% Triton X-100 and stained as above. For both C2C12 and primary myoblast cultures, nuclei were detected by incubating cells for 10 min with 4,6-diamidino-2-phenylindole diluted 1:10000 in PBS.
Cells were fixed after 0, 2 and 4 days of differentiation and stained with the myosin heavy chain antibody MF20. […] In contrast, differentiation was more evident in cells that were incubated with caspase-8 inhibitor, z-LETD.fmk (FIG. 2B bottom panel, C).

[1] = test system: endogenous kinases (MBP-directed cellular kinase activities); assay: Two-dimensional in-gel kinase assay of C2C12 lysates with MBP as substrate; conditions: C2C12, 12 h low serum treatment with inhibitor, vs untreated
Method: Samples were subjected to in-gel kinase analyses as previously described (Kolodziejczyk, S. M., et al., (1999) Curr Biol 9, 1203-1206) using MBP or Histone H1 as the target substrate. For two-dimension in-gel kinase analyses, samples were isoelectric focused in the first dimension using pH 4.0-7.0 IPG strips (BioRad). Second dimension analyses was performed using 10% SDS-PAGE containing Histone H1 as the in-gel substrate. Additional in-gel kinase analyses was performed as above.
A two-dimensional in-gel kinase assay was employed using myelin basic protein (MBP) as a target substrate to identify protein kinases that may be targeted by caspase-3 activity. C2C12 cells were treated with caspase-3 inhibitor and total protein lysates were isoelectrically focused in the first dimension and then separated in the second dimension using MBP as the crosslinked substrate. […] Similar results were seen using histone H1 as the in-gel substrate.

PAK1 = assay: Immunoprecipitation/kinase assay of PAK1 from neurospheres; conditions: differentiation media, vs DMSO
Method: Immunoprecipitation/Kinase activity assays: Immunoprecipitation/kinase analyses were performed as previously described (Fernando, P., et al., (2002) Proc Natl Acad Sci USA 99, 11025-11030). Cellular lysates from neurospheres were generated as described above. Antibodies against apoptotic signal-regulating kinase 1 (ASK1) (Upstate, USA), p21 activated kinase 1 (PAK1) (Cell Signaling Technologies, USA), and p38 MAPK (Santa Cruz, USA) were used to immunoprecipitate respective proteins. Samples were mixed with Protein G-sepharose beads for 1 h, washed and then mixed with kinase assay buffer containing myelin basic protein (MBP) and γ-32P[ATP]. Samples were reacted at 30° C. for 30 min and separated using SDS-PAGE. In some instances, samples were transferred to PVDF membrane following electrophoresis. To quantify kinase activities, MBP acrylamide bands were excised and solubilized in scintillation fluid prior to 32P-liquid scintillation analyses. In all cases, an activated recombinant mitogen activated protein kinase activated protein-2 (MAPKAP kinase-2) (Upstate, USA) was used as an internal control for liquid scintillation analyses.
Caspase 3, when processed to its active form, is capable of targeting and activating many protein kinases that mediate cellular differentiation. […]

- myotube formation (C2C12 myoblasts): impaired formation of myotubes
- myotube formation (C2C12 myoblasts; listed as Z-DEVD.fmk): drastically attenuated
- expression of MEF2C (C2C12 myoblasts): virtually absent
- accumulation of myogenin (C2C12 myoblasts): delayed and attenuated accumulation
- accumulation of myogenin (C2C12 myoblasts; listed as Z-DEVD.fmk): delayed and is in lower abundance
- activity of endogenous kinases (in-gel, MBP substrate) [1]: diminished level of activity
- PAK1 activity (PAK1): reduced
Structure (SMILES): COC(=O)CC[C@H](NC(=O)[C@H](CC(=O)OC)NC(=O)OCc1ccccc1)C(=O)N[C@H](C(=O)N[C@@H](CC(=O)OC)C(=O)CF)C(C)C [z-DEVD.fmk]
- myoblast fusion (mononucleated / fused cells) (C2C12 myoblasts): remained mononucleated and unfused after 4 days
- myoblast fusion (mononucleated / fused cells) (C2C12 myoblasts; listed as Z-DEVD.fmk): lack fusion capacity
- expression of MEF2C (C2C12 myoblasts; listed as Z-DEVD.fmk): low levels of MEF2C relative to control cells
- activity of endogenous kinases (in-gel, MBP substrate) ([1]; listed as caspase-3 inhibitor): significant loss of MBP-directed cellular kinase activities

— US20060013804A1, “Modulation of stem cell differentiation by modulation of caspase-3 activity” (Ottawa Health Research Institute, priority 2002, published 2006)
